From patent US12319664B2, “Herbicidally active 3-phenylisoxazoline-5-carboxamides of cyclopentenylcarboxylic acid derivatives” (Bayer Aktiengesellschaft, priority 2018, dated 2025)

What was measured:
POLCO = experiment: Post-emergence herbicidal action against POLCO; type: in vivo, Polygonum convolvulus; settings: application rate 80 g/ha, rated visually about 3 weeks after treatment
Description: (§1) [table] 2. Post-emergence herbicidal action against harmful plants and crop plant compatibility Seeds of monocotyledonous and dicotyledonous weeds and crop plants are placed in sandy loam in plastic or wood-fibre pots, covered with soil and cultivated in a greenhouse under controlled growth conditions. 2 to 3 weeks after sowing, the test plants are treated at the one-leaf stage. The compounds of the invention, formulated in the form of wettable powders (WP) or as emulsion concentrates (EC), are then sprayed onto the green parts of the plants as aqueous suspension or emulsion with addition of 0.5% additive at a water application rate of 600 l/ha (converted). After the test plants have been kept in the greenhouse under optimum growth conditions for about 3 weeks, the activity of the preparations is rated visually in comparison to untreated controls. For example, 100% activity=the plants have died, 0% activity=like control plants.

STEME = experiment: Post-emergence herbicidal action against STEME; type: in vivo, Stellaria media; settings: application rate 80 g/ha, rated visually about 3 weeks after treatment
Description: as §1

VERPE = experiment: Post-emergence herbicidal action against VERPE; type: in vivo, Veronica persica; settings: application rate 80 g/ha
Description: as §1

ALOMY = experiment: Post-emergence herbicidal action against ALOMY; type: in vivo, Alopecurus myosuroides; settings: application rate 80 g/ha, rated visually after about 3 weeks
Description: as §1

HORMU = experiment: Post-emergence herbicidal action against HORMU; type: in vivo, Hordeum murinum; settings: application rate 80 g/ha
Description: as §1

ABUTH = experiment: Post-emergence herbicidal action against ABUTH; type: in vivo, Abutilon theophrasti; settings: application rate 80 g/ha, rated visually about 3 weeks after treatment
Description: as §1

LOLRI = experiment: Post-emergence herbicidal action against LOLRI; type: in vivo, Lolium rigidum; settings: application rate 80 g/ha, rated visually after about 3 weeks
Description: as §1

AVEFA = experiment: Post-emergence herbicidal action against AVEFA; type: in vivo, Avena fatua; settings: application rate 80 g/ha, rated visually after about 3 weeks
Description: as §1

SETVI = experiment: Post-emergence herbicidal action against SETVI; type: in vivo, Setaria viridis; settings: application rate 80 g/ha, rated visually after about 3 weeks
Description: as §1

ECHCG = experiment: Post-emergence herbicidal action against ECHCG; type: in vivo, Echinochloa crus-galli; settings: application rate 80 g/ha, rated visually after about 3 weeks
Description: as §1

AMARE = experiment: Post-emergence herbicidal action against AMARE; type: in vivo, Amaranthus retroflexus; settings: application rate 80 g/ha, rated visually about 3 weeks after treatment
Description: as §1

| Compound | Herbicidal action against [%] POLCO (POLCO) | Herbicidal action against [%] STEME (STEME) | Herbicidal action against [%] VERPE (VERPE) | Herbicidal action against [%] ALOMY (ALOMY) | Herbicidal action against [%] HORMU (HORMU) | Herbicidal action against [%] ABUTH (ABUTH) | Herbicidal action against [%] LOLRI (LOLRI) | Herbicidal action against [%] AVEFA (AVEFA) | Herbicidal action against [%] SETVI (SETVI) | Herbicidal action against [%] ECHCG (ECHCG) | Herbicidal action against [%] AMARE (AMARE) |
| --- | --- | --- | --- | --- | --- | --- | --- | --- | --- | --- | --- |
| C=CC1(C(=O)NC2C=CC(C(=O)OC(C)C)C2)CC(c2cc(F)cc(F)c2)=NO1 (mixture of isomers) [Example I-034] | 80% | 90% | 90% | 90% | 90% | 80% | 100% | 90% | 80% | 80% |  |
| C=CC1(C(=O)NC2C=CC(C(=O)OC)C2)CC(c2cc(F)cc(F)c2)=NO1 (mixture of isomers) [Example I-035] | 80% | 90% | 80% | 90% | 90% | 80% | 90% | 90% | 80% | 90% | 80% |
| CCOC(=O)C1C=CC(NC(=O)C2(C(F)(F)F)CC(c3cc(OC)cc(OC)c3)=NO2)C1 (mixture of isomers) [Example I-043] |  | 80% | 80% | 90% | 80% | 80% | 90% | 90% | 80% | 80% | 80% |
| Cc1cc(C2=NOC(C(=O)NC3C=CC(C(=O)OCC(F)(F)F)C3)(C(F)(F)F)C2)cc(C(F)(F)F)c1 (mixture of isomers) [Example I-050] |  |  |  | 90% | 90% | 80% |  | 90% |  |  | 80% |
| Cc1cc(C)cc(C2=NOC(C(=O)NC3C=CC(C(=O)OCCCl)C3)(C(F)(F)F)C2)c1 (mixture of isomers) [Example I-056] | 80% | 90% | 80% | 100% | 80% |  | 90% | 90% | 80% | 80% | 80% |
| CC(C)(C)OC(=O)C1C=CC(NC(=O)C2(C(F)(F)F)CC(c3cc(F)cc(F)c3)=NO2)C1 (mixture of isomers) [Example I-066] | 80% |  | 80% | 90% | 90% |  | 90% | 90% | 90% | 80% | 90% |
| CCOC(=O)C1C=CC(NC(=O)C2(C)CC(c3cccc(C#N)c3)=NO2)C1 (mixture of isomers) [Example I-069] | 80% | 80% | 80% | 90% | 90% | 80% | 90% | 90% | 80% | 90% | 80% |
| CC1(C(=O)NC2C=CC(C(=O)OCCCl)C2)CC(c2cccc(C#N)c2)=NO1 (mixture of isomers) [Example I-079] | 90% | 80% | 90% | 90% | 100% | 80% |  | 90% | 90% | 80% | 90% |
| COCCOC(=O)C1C=CC(NC(=O)C2(C)CC(c3cccc(C#N)c3)=NO2)C1 (mixture of isomers) [Example I-081] | 90% | 90% | 80% |  | 100% | 80% | 100% | 100% | 80% |  | 80% |
| COC(=O)C(C)(C)NC(=O)C1C=CC(NC(=O)C2(C)CC(c3cc(F)cc(F)c3)=NO2)C1 (mixture of isomers) [II-09] | 90% |  |  |  |  |  | 80% | 90% |  |  |  |
| C=CC1(C(=O)NC2C=CC(C(=O)NC(C#N)C(C)C)C2)CC(c2cc(F)cc(F)c2)=NO1 (mixture of isomers) [II-17] |  |  |  | 80% |  |  |  |  |  |  |  |
| C=CC1(C(=O)NC2C=CC(C(=O)NC(C)(C)C#N)C2)CC(c2cc(F)cc(F)c2)=NO1 (mixture of isomers) [II-20] |  | 80% |  |  |  |  |  | 100% |  |  |  |
| C=CC1(C(=O)NC2C=CC(C(=O)NC(C(=O)OC)C(C)C)C2)CC(c2cc(F)cc(F)c2)=NO1 (mixture of isomers) [II-25] | 80% |  |  | 80% | 100% |  | 90% | 90% |  | 80% | 80% |
| C=CC1(C(=O)NC2C=CC(C(=O)N3CCCCO3)C2)CC(c2cc(F)cc(F)c2)=NO1 (mixture of isomers) [II-30] | 90% |  | 80% | 100% |  | 80% | 90% | 100% | 80% | 90% | 80% |
| O=C(OCCCl)[C@@H]1C=C[C@H](NC(=O)C2(C(F)(F)F)CC(c3ccccc3)=NO2)C1 (stereo partly drawn) [Example I-025] | 100% | 80% |  | 90% | 80% |  | 90% | 90% | 90% | 80% | 90% |
| C=CC1(C(=O)NC2C=CC(C(=O)NC(C)(C)C(=O)OC)C2)CC(c2cc(F)cc(F)c2)=NO1 (stereo not drawn) [II-21] | 80% |  |  |  |  |  |  |  |  |  |  |
| C=CC1(C(=O)NC2C=CC(C(=O)NC(C)(C)C(=O)OC)C2)CC(c2cc(F)cc(F)c2)=NO1 (stereo not drawn) [II-22] |  | 80% | 80% | 80% | 90% |  | 90% | 90% |  |  |  |
| C=CC1(C(=O)NC2C=CC(C(=O)N3CCCO3)C2)CC(c2cc(F)cc(F)c2)=NO1 (stereo not drawn) [II-27] | 90% | 90% | 90% | 90% | 80% |  | 90% | 90% | 80% | 90% | 80% |
| C=CC1(C(=O)N[C@H]2C=C[C@H](C(=O)N3CCCCO3)C2)CC(c2cc(F)cc(F)c2)=NO1 (stereo partly drawn) [II-29] | 80% |  | 80% |  | 80% |  | 90% | 80% | 80% | 90% | 80% |
| COC(=O)CS(=O)(=O)NC(=O)C1C=CC(NC(=O)C2(C(F)(F)F)CC(c3cc(F)cc(F)c3)=NO2)C1 (stereo not drawn) [II-39] |  |  | 80% | 80% | 80% |  | 80% | 90% |  |  | 80% |
